The term IC50 denotes the concentration needed to halve the response being measured. High values mean a need for much substance, low ones inhibition by little substance.

15 molecules from patent US10266497B2 (ABIDE THERAPEUTICS, INC., priority 2017, dated 2019) can be followed below.

Experiment [1] deals with T1, MAGL (Homo sapiens, UniProt Q99685).
T1 sequence (Q99685 1-303): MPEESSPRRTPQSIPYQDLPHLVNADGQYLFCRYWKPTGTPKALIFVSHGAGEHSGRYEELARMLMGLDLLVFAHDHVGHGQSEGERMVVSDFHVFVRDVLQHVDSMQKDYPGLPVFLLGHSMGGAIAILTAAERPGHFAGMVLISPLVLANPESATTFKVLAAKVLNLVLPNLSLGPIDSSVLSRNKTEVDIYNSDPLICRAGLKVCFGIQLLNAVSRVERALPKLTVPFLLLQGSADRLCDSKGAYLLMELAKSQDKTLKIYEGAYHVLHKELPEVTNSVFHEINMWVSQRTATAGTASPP
The experiment can be described thus: In vitro competitive activity-based protein profiling, MAGL, human. The following applies: read-out: MAGL % inh. 1 μM (human).
Description: (§1) Biological Evaluation In Vitro Competitive Activity-Based Protein Profiling.
(§2) Proteomes (mouse brain membrane fraction for mouse assays; human prefrontal cortex membrane fractions for human assays) (50 mL, 1.0 mg/mL total protein concentration) were preincubated with varying concentrations of inhibitors at 37° C. After 30 min, FP-Rh (1.0 mL, 50 mM in DMSO) was added and the mixture was incubated for another 30 min at 37° C. Reactions were quenched with SDS loading buffer (15 μL—4λ) and run on SDS-PAGE.

In experiment [2] the target is T2, MAGL (Mus musculus, UniProt O35678).
T2 sequence (O35678 1-303): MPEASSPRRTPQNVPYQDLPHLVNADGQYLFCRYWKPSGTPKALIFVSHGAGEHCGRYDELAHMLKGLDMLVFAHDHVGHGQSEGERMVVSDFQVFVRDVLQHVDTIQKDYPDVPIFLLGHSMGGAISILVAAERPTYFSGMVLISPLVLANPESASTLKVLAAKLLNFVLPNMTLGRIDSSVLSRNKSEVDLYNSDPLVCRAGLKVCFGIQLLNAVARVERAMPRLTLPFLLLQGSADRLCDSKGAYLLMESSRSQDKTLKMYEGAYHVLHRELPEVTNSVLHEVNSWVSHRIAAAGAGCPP
As to the kind of experiment: In vitro competitive activity-based protein profiling, MAGL, mouse. As to conditions: read-out: MAGL % inh. 1 μM (mouse).
Description: as §1, §2

The target of experiment [3] is T3, FAAH (Homo sapiens, UniProt O00519).
T3 sequence (O00519 1-579): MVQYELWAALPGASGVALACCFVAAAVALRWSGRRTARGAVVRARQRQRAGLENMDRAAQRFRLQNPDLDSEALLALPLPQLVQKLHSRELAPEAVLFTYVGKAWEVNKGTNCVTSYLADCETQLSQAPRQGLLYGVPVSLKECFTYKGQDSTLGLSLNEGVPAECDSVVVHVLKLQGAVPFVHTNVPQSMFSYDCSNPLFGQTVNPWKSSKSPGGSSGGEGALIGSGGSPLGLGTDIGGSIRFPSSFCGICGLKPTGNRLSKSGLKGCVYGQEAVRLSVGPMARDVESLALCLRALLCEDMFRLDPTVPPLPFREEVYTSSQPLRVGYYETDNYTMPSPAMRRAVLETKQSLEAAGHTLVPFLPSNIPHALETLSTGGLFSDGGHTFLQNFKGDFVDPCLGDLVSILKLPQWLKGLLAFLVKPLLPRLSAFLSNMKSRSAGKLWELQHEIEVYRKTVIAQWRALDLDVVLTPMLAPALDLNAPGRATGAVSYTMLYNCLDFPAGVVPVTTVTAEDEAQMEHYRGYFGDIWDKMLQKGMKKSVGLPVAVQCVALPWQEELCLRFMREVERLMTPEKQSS
As to the kind of experiment: In vitro competitive activity-based protein profiling, FAAH, human. The following applies: for inhibition at 1 µM: read-out: FAAH % inh. 1 μM (human).

The target of experiment [4] is T4, FAAH (Mus musculus, UniProt O08914).
T4 sequence (O08914 1-579): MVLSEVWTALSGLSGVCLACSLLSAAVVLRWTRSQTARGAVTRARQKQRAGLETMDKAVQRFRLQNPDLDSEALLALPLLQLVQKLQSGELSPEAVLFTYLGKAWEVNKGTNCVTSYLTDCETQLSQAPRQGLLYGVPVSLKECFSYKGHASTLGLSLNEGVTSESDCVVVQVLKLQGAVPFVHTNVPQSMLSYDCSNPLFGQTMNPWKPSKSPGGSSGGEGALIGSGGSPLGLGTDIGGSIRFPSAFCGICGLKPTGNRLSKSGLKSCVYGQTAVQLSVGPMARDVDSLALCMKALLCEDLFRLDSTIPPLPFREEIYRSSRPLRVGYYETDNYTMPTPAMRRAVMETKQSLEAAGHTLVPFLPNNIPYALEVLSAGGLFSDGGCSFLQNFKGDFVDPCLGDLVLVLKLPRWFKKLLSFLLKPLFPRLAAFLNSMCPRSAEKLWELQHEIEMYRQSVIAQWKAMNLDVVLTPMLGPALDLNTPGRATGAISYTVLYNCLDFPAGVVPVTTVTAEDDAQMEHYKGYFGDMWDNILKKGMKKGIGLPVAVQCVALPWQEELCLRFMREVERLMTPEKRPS
The experiment can be described thus: In vitro competitive activity-based protein profiling, FAAH, mouse. The following applies: read-out: FAAH % inh. 1 μM (mouse).

A value given as a limit tells only on which side of the number the result lay.

Turning to `CN(Cc1ccc(Cl)cc1N1CCCC1)C1(C)CCN(C(=O)n2ccc(C(=O)O)n2)CC1` [Example 46, 1-(4-((4-chloro-2-(pyrrolidin-1-yl)benzyl)(methyl)amino)-4-methylpiperidine-1-carbonyl)-1H-pyrazole-3-carboxylic acid], the inhibition at 1 µM in experiment [1] was over 75%; in experiment [2], over 75%; in experiment [3] it was 0 to 25%; in experiment [4], 0 to 25%.

Consider `NC(=O)c1ccn(C(=O)N2CCC3(CCN(Cc4ccc(N5CCOCC5)cc4Cl)C3)CC2)n1` [Example 197, 1-(2-(2-chloro-4-morpholinobenzyl)-2,8-diazaspiro[4.5]decane-8-carbonyl)-1H-pyrazole-3-carboxamide], for which the inhibition at 1 µM in experiment [1], in experiment [2], in experiment [3] and in experiment [4] was over 75% in each case. Further, in experiment [3], the IC50 lay within 100 to 1000 nM.

For `O=C(O)c1nn(C(=O)N2CC3CN(Cc4cc(N5CCCC5)cc(C(F)(F)F)c4)CC3C2)cc1Cl` (stereo not shown) [Example 151, 4-chloro-1-(5-(3-(pyrrolidin-1-yl)-5-(trifluoromethyl)benzyl)octahydro-pyrrolo[3,4-c]pyrrole-2-carbonyl)-1H-pyrazole-3-carboxylic acid], the inhibition at 1 µM in experiment [1] is over 75%; in experiment [2], over 75%; in experiment [3], 25 to 50%; in experiment [4], 25 to 50%.

Take `O=C(O)c1ccn(C(=O)N2C[C@H]3C[C@H](Oc4cccc(-c5ccccc5)c4)C[C@H]3C2)n1` [Example 125, 1-(trans-5-([1,1′-biphenyl]-3-yloxy)octahydro-cyclopenta[c]pyrrole-2-carbonyl)-1H-pyrazole-3-carboxylic acid]: the inhibition at 1 µM in experiment [1], in experiment [2], in experiment [3] and in experiment [4] was over 75% throughout.

Take `O=C(O)c1ccn(C(=O)N2CCN(Cc3cccc(Oc4ccncc4)c3)CC2)n1` [Example 59, 1-(4-(3-(pyridin-4-yloxy)benzyl)piper-azine-1-carbonyl)-1H-pyrazole-3-carboxylic acid]: the inhibition at 1 µM was over 75% in experiment [1], over 75% in experiment [2], 0 to 25% in experiment [3] and 0 to 25% in experiment [4].

For the molecule `O=C(O)c1nn(C(=O)N2CCC3(CC2)CN(Cc2cc(Cl)ccc2C(F)(F)F)C3)cc1Cl` [Example 134, 4-chloro-1-(2-(5-chloro-2-(trifluoromethyl)benzyl)-2,7-diazaspiro[3.5]non-ane-7-carbonyl)-1H-pyrazole-3-carboxylic acid], the inhibition at 1 µM is over 75% in experiment [1], over 75% in experiment [2], over 75% in experiment [3] and 50 to 75% in experiment [4]. In experiment [3], this molecule yielded an IC50 of 100 to 1000 nM.

With `C[C@H]1CCCCN1c1cc(C(F)(F)F)ccc1CN1CCN(C(=O)n2ccc(C(=O)O)n2)CC1` [Example 110, (S)-1-(4-(2-(2-methylpiperidin-1-yl)-4-(trifluoromethyl)benzyl)piperazine-1-carbonyl)-1H-pyrazole-3-carboxylic acid], the inhibition at 1 µM is over 75% in experiment [1], over 75% in experiment [2], 0 to 25% in experiment [3] and 0 to 25% in experiment [4].

Take `CN(Cc1cc(Cl)ccc1C(F)(F)F)C1CCN(C(=O)n2ccc(C(=O)O)n2)CC1` [Example 81, 1-(4-((5-chloro-2-(trifluoromethyl)benzyl)(methyl)amino)piperidine-1-carbonyl)-1H-pyrazole-3-carboxylic acid]: the inhibition at 1 µM in experiment [1] is over 75%; in experiment [2] it was over 75%; in experiment [3], 50 to 75%; in experiment [4] it was 0 to 25%. Further, the IC50 in experiment [3] fell in the range of 100 to 1000 nM.

On to `O=C(O)c1ccn(C(=O)N2CCN(Cc3cccc(-c4ncccn4)c3)CC2)n1` [Example 64, 1-(4-(3-(pyrimidin-2-yl)benzyl)piperazine-1-carbonyl)-1H-pyrazole-3-carboxylic acid], for which the inhibition at 1 µM was over 75% in experiment [1], over 75% in experiment [2], 0 to 25% in experiment [3] and 0 to 25% in experiment [4].

On to `O=C(O)c1ccn(C(=O)N2CCN(Cc3ccc(C(F)(F)F)c(-c4nnco4)c3)CC2)n1` [Example 9, 1-(4-(3-(1,3,4-oxadiazol-2-yl)-4-(trifluoromethyl)benzyl)piperazine-1-carbonyl)-1H-pyrazole-3-carboxylic Acid], for which the inhibition at 1 µM in experiment [1] was over 75%; in experiment [2], over 75%; in experiment [3], 0 to 25%; in experiment [4], 0 to 25%.

As to `O=C(O)c1ccn(C(=O)N2CCN(Cc3ccc(N4CCCC4)cc3C(F)(F)F)CC2)n1` [Example 167, 1-(4-(4-(pyrrolidin-1-yl)-2-(trifluoromethyl)benzyl)piperazine-1-carbonyl)-1H-pyrazole-3-carboxylic acid], the inhibition at 1 µM in experiment [1] was over 75%; in experiment [2], over 75%; in experiment [3], 25 to 50%; in experiment [4] it was 0 to 25%. Moreover, in experiment [3], the IC50 fell in the range of 1000 to 10000 nM.

For the molecule `O=C(O)c1ccn(C(=O)N2CCC3(CCN(Cc4cccc(C(F)(F)F)c4)C3)CC2)n1` [Example 192, 1-(2-(3-(trifluoromethyl)benzyl)-2,8-diazaspiro[4.5]decane-8-carbonyl)-1H-pyrazole-3-carboxylic acid], the inhibition at 1 µM is over 75% in experiment [1], 25 to 50% in experiment [2], 0 to 25% in experiment [3] and 0 to 25% in experiment [4].

As for `O=C(O)c1ccn(C(=O)N2C[C@H]3C[C@@H](OCc4cc(F)cc(Cl)c4)C[C@H]3C2)n1` [Example 193, 1-(cis-5-((3-chloro-5-fluorobenzyl)oxy)octahydrocyclopenta [c]pyrrole-2-carbonyl)-1H-pyrazole-3-carboxylic acid], the inhibition at 1 µM in experiment [1] was 25 to 50%; in experiment [2], 25 to 50%; in experiment [3], over 75%; in experiment [4], over 75%.

Turning to `O=C(O)c1ccn(C(=O)N2CCC3(CCN(Cc4cc(Cl)cc(N5CCCC5)c4)C3)CC2)n1` [Example 44, 1-(2-(3-chloro-5-(pyrrolidin-1-yl)benzyl)-2,8-diazaspiro[4.5]decane-8-carbonyl)-1H-pyrazole-3-carboxylic acid], the inhibition at 1 µM in experiment [1] was over 75%; in experiment [2], over 75%; in experiment [3], 0 to 25%; in experiment [4] it was 0 to 25%.

In the case of `NC(=O)c1ccn(C(=O)N2CC3CN(Cc4ccc(Cl)cc4)CC3C2)n1` (stereo not shown) [Example 203, 1-(5-(4-chlorobenzyl)octa-hydropyrrolo[3,4-c]pyrrole-2-carbonyl)-1H-pyrazole-3-carboxamide], the inhibition at 1 µM in experiment [1], in experiment [2], in experiment [3] and in experiment [4] was over 75% each time.
